Tested on: S. aureus 6
Test: in vitro Antimicrobial Activity, two-fold agar-plate dilution method
Format: cell-based
Details: Staphylococcus aureus, heart infusion agar, 10^6 viable cells per ml, 37° C. for 20 hours, read-out: minimal inhibitory concentration (MIC)
Procedure: in vitro Antimicrobial Activity was determined by the two-fold agar-plate dilution method as described below.
One loopful of an overnight culture of a test strain in Trypticase-soy broth (10^6 viable cells per ml) was streaked on heart infusion agar (HI-agar) containing graded concentrations of the test compound, and the minimal inhibitory concentration (MIC) was expressed in terms of μg/ml after incubation at 37° C. for 20 hours.

MIC: ≤ 0.025 µg/mL
Structure (SMILES): C[C@@H](O)[C@H]1C(=O)N2C(C(=O)O)=C(C3CCN(C=N)C3)C[C@H]12 (stereo partly drawn) [Example 12, (5R,6S)-3-(1-formimidoylpyrrolidin-3-yl)-6-[(1R)-1-hydroxyethyl]-7-oxo-1-azabicyclo[3.2.0]hept-2-ene-2-carboxylic acid]
